Broadly, the AUC(0-inf) is the area under the concentration-time curve extrapolated to infinity. A lower AUC(0-inf) goes with low exposure. A word on the pEC50: it is the negative decadic logarithm of the EC50, by convention in mol/L. What is called Cmax is the peak of the concentration-time curve.

We go through one molecule from ChEMBL document CHEMBL5316293, “Novel Small-Molecule PD-L1 Inhibitor Induces PD-L1 Internalization and Optimizes the Immune Microenvironment” (J Med Chem, 2023).

The structures appear in SMILES notation. pEC50: −log10 of the molar value. The source made the active and inactive calls. No cut-off for these calls is given here.

For series [1], the system named is LLC-hPD-L1. Description: Antitumor activity against humanized mouse LLC-hPD-L1 cells implanted in hPD-1 knockin C57BL/6 mouse assessed as increase in tumor cell apoptosis by measuring increase in cleaved caspase-3 level administered intraperitoneally for 12 days starting from day 7 post tumor implantation by immunohistochemistry analysis. The class given is functional, cell-based. To be noted: dose 10-25 mg/kg, route ip, time 12.0 day.

Series [2] addresses T1, Programmed cell death protein 1/Programmed cell death 1 ligand 1 (Homo sapiens) (UniProt Q15116+Q9NZQ7). Description: Inhibition of PD-1/PD-L1 interaction in human A549 cells harboring low level PD-L1 expression assessed as increase in transcriptional-mediated bioluminescent signal preincubated with compound followed by washout and further cultured with Jurkat cells transfected with NFAT luciferase by bio-glo reagent based assay. The following applies: dose 50-200 nM. The class given is cell-based.

In series [3] the test system is LLC-hPD-L1. As to the kind of experiment: Antitumor activity against humanized mouse LLC-hPD-L1 cells implanted in hPD-1 knockin C57BL/6 mouse assessed as increase in M1 macrophages at 10 to 25 mg/kg, ip administered for 12 days starting from day 7 post tumor implantation by flow cytometry analysis. To be noted: dose 10-25 mg/kg, time 12.0 day. The format is functional, organism-based.

The nature of series [4]: Antitumor activity against humanized mouse LLC-hPD-L1 cells implanted in hPD-1 knockin C57BL/6 mouse assessed as tumor growth inhibition at 10 mg/kg, ip administered for 12 days starting from day 7 post tumor implantation and measured every 2 days relative to control. The class given is functional. The following applies: LLC-hPD-L1, 288 h, time 12 day, read-out: TGI.
Series [5] can be described thus: AUC (0 to infinity) in ICR mouse at 5 mg/kg, iv. The following applies: in vivo. The format is ADME, organism-based. The arrangement: dose 5 mg/kg, route iv.
Series [6] has as its system MC38-hPD-L1. As to the kind of experiment: Antitumor activity against humanized mouse MC38-hPD-L1 cells implanted in hPD-1 knockin C57BL/6 mouse assessed as reduction in M2 macrophages at 10 to 25 mg/kg, ip administered for 12 days starting from day 7 post tumor implantation by flow cytometry analysis. To be noted: dose 10-25 mg/kg, time 12.0 day. The format is functional, organism-based.

For series [7], the target named is T1, Programmed cell death protein 1/Programmed cell death 1 ligand 1 (Homo sapiens). Description: Inhibition of PD-1/PD-L1 interaction in human NCI-H358 cells harboring high level PD-L1 expression assessed as increase in transcriptional-mediated bioluminescent signal preincubated with compound followed by washout and further cultured with Jurkat cells transfected with NFAT luciferase by bio-glo reagent based assay. The class given is cell-based. The following applies: dose 50-200 nM.

Series [8] in a line: Toxicity in ICR mouse assessed as acute side effects at 500 to 5000 mg/kg, po administered via gavage for 2 weeks. The class given is organism-based. The following applies: in vivo, 336 h, dose 500-5000 mg/kg.
Series [9] has as its system LLC-hPD-L1. Description: Antitumor activity against humanized mouse LLC-hPD-L1 cells implanted in hPD-1 knockin C57BL/6 mouse assessed as reduction in M2 macrophages at 10 to 25 mg/kg, ip administered for 12 days starting from day 7 post tumor implantation by flow cytometry analysis. The format is functional, organism-based. To be noted: dose 10-25 mg/kg, time 12.0 day.

Series [10] is described as follows: Toxicity in ICR mouse assessed as animal death at 5000 mg/kg, po administered via gavage for 2 weeks. The class given is organism-based. The following applies: in vivo, 336 h.
The subject of a further series is A549. As to the kind of experiment: Cytotoxicity against human A549 cells assessed as reduction in tumor proliferation at 10 to 20 uM incubated for 48 hrs by xCELLigence RTCA system analysis. The format is functional, cell-based. The following applies: dose 10-20 µM.
In series [11] the test system is MC38-hPD-L1. As to the kind of experiment: Antitumor activity against humanized mouse MC38-hPD-L1 cells implanted in hPD-1 knockin C57BL/6 mouse assessed as macrophage polarization into M1 phenotype at 25 mg/kg, ip administered for 12 days starting from day 7 post tumor implantation by flow cytometry analysis. The class given is functional, organism-based. To be noted: time 12.0 day. Background: In flow cytometry, cells or beads pass a laser one at a time.

Series [12] is described as follows: Antitumor activity against humanized mouse LLC-hPD-L1 cells implanted in hPD-1 knockin C57BL/6 mouse assessed as tumor growth inhibition at 25 mg/kg, ip administered for 12 days starting from day 7 post tumor implantation and measured every 2 days relative to control. The format is functional. The following applies: LLC-hPD-L1, 288 h, time 12 day, read-out: TGI.

In series [13] the test system is LLC-hPD-L1. Description: Antitumor activity against humanized mouse LLC-hPD-L1 cells implanted in hPD-1 knockin C57BL/6 mouse assessed as reduction in tumor cell proliferation by measuring reduction in Ki67 expression administered intraperitoneally for 12 days starting from day 7 post tumor implantation by immunohistochemistry analysis. The following applies: dose 10-25 mg/kg, route ip, time 12.0 day. The class given is functional, cell-based.

The next series is filed under the species Homo sapiens. Description: Internalization of PD-L1 in cytoplasm of human RKO cells transfected with DsRed and human calreticulin assessed as colocalization of PD-L1 with endoplasmic reticulum-resident calreticulin at 1 micromol/L incubated for 12 hrs by fluorescence microscopy. The format is functional, cell-based. To be noted: dose 1.0 µmol/L.
The test system of series [14] is MC38-hPD-L1. As to the kind of experiment: Antitumor activity against humanized mouse MC38-hPD-L1 cells implanted in hPD-1 knockin C57BL/6 mouse assessed as increase in tumor cell apoptosis by measuring increase in cleaved caspase-3 level at 10 to 25 mg/kg, ip administered for 12 days starting from day 7 post tumor implantation by immunohistochemistry analysis. The format is functional, organism-based. To be noted: dose 10-25 mg/kg, time 12.0 day.

The test system of series [15] is MC38-hPD-L1. Description: Antitumor activity against humanized mouse MC38-hPD-L1 cells implanted in hPD-1 knockin C57BL/6 mouse assessed as reduction in tumor cell proliferation by measuring reduction in Ki67 expression at 10 to 25 mg/kg, ip administered for 12 days starting from day 7 post tumor implantation by immunohistochemistry analysis. The class given is functional, organism-based. To be noted: dose 10-25 mg/kg, time 12.0 day.

Series [16] has as its system LLC-hPD-L1. Description: Antitumor activity against humanized mouse LLC-hPD-L1 cells implanted in hPD-1 knockin C57BL/6 mouse assessed as macrophage polarization into M1 phenotype at 25 mg/kg, ip administered for 12 days starting from day 7 post tumor implantation by flow cytometry analysis. The format is functional, organism-based. The following applies: time 12.0 day.

Series [17] has as its system MC38-hPD-L1. As to the kind of experiment: Antitumor activity against humanized mouse MC38-hPD-L1 cells implanted in hPD-1 knockin C57BL/6 mouse assessed as increase in CD8-positive T cells at 10 to 25 mg/kg, ip administered for 12 days starting from day 7 post tumor implantation by flow cytometry analysis. The format is functional, organism-based. To be noted: dose 10-25 mg/kg, time 12.0 day.

Series [18] deals with Programmed cell death 1 ligand 1 (Homo sapiens, UniProt Q9NZQ7). As to the kind of experiment: Inhibition of PD-1 Fc IgG fusion protein binding to PD-L1 in human NCI-H460 cells incubated for 6 hrs by DAPI/PD-1 anti-human IgG DyLight 488 staining based fluorescence microscopy. The class given is cell-based.
Programmed cell death 1 ligand 1, sequence (Q9NZQ7 whole entry, the tested form may be a part): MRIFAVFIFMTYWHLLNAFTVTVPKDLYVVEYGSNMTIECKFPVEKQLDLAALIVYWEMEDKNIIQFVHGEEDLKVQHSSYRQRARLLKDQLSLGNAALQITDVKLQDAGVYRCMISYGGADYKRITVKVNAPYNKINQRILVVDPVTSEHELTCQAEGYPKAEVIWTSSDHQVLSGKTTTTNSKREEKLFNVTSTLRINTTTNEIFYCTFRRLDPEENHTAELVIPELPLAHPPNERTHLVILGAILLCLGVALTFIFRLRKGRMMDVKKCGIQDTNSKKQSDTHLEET
A further series relates to NCI-H460. As to the kind of experiment: Cytotoxicity against human NCI-H460 cells cocultured with human PBMC cells assessed as increase in clearance of tumor cells at 100 to 200 nM preincubated for 30 mins followed by NCI-H460 cells addition and further coincubated for 24 hrs with human PBMC cells by cell impedence assay. The format is functional, cell-based. To be noted: dose 100-200 nM, time 24.5 hrs.

The nature of series [19]: Cmax in ICR mouse at 5 mg/kg, iv. The class given is ADME, organism-based. The arrangement: dose 5 mg/kg, route iv. The following applies: in vivo.

Consider `COc1cc2c(cc1CN[C@@H](CO)C(=O)O)C(=O)N(c1cccc(-c3ccccc3)c1C)C2=O`, for which the Activity entry in the series with LLC-hPD-L1 [1] is “Dose-Dependent Effect”; in series [8], “Non-Toxic”; in series [10], “Non-Toxic”; with LLC-hPD-L1 [13] it was “Dose-Dependent Effect”. Also, the inhibition entry in series [2] and in series [7] was “Dose-Dependent Effect” throughout. Besides, the outcome in the series with LLC-hPD-L1 [3], with MC38-hPD-L1 [6], in the series on LLC-hPD-L1 [9], in the series with MC38-hPD-L1 [11], in the series filed under Homo sapiens and with MC38-hPD-L1 [14] was Active. Further, the result in the series with MC38-hPD-L1 [15], with LLC-hPD-L1 [16], in the series on MC38-hPD-L1 [17] and in the series on NCI-H460 was Active. Also, in [4], the inhibition in vivo at 10 mg/kg was found to be 57.2%. Also, in series [5], the AUC(0-inf) came to 3570 ng·h/mL. Also, in the series with A549, the outcome was inactive. The inhibition in vivo at 25 mg/kg in [12] amounted to 81.4%. In addition, the pEC50 in [18] was 6.92. This molecule registered a Cmax in [19] of 6290 ng/mL.
